According to ChEMBL document CHEMBL1201862, “PubChem BioAssay data set” (2004):
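Protocol summary: plate cells (96-well), add compound at 5 concentrations, incubate 48 h, interpolate endpoints linearly. The concentration for 50% growth inhibition is given as GI50.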 Calls of active or inactive are those of the source. Cut-off read from the data, not from the text of the source: active = GI50 up to about 1.1 µM and inactive = higher.

What was measured:
Assay in all cases: growth of human tumour cells (NCI), 48 h
786-0 = system: 786-0
A498 = system: A498
A549 = system: A549
ACHN = system: ACHN
BT-549 = system: BT-549
CAKI-1 = system: CAKI-1
CCRF-CEM = system: CCRF-CEM
COLO 205 = system: COLO 205
DU-145 = system: DU-145
EKVX = system: EKVX
HCC 2998 = system: HCC 2998
HCT-116 = system: HCT-116
HCT-15 = system: HCT-15
HL-60 = system: HL-60
HOP-62 = system: HOP-62
HOP-92 = system: HOP-92
HT-29 = system: HT-29
Hs-578T = system: Hs-578T
IGROV-1 = system: IGROV-1
K562 = system: K562
KM12 = system: KM12
LOX IMVI = system: LOX IMVI
M14 = system: M14
MCF7 = system: MCF7
MDA-MB-231 = system: MDA-MB-231
MDA-MB-435 = system: MDA-MB-435
MDA-N = system: MDA-N
MOLT-4 = system: MOLT-4
Malme-3M = system: Malme-3M
NCI-H226 = system: NCI-H226
NCI-H23 = system: NCI-H23
NCI-H460 = system: NCI-H460
NCI-H522 = system: NCI-H522
NCI/ADR-RES = system: NCI/ADR-RES
OVCAR-3 = system: OVCAR-3
OVCAR-4 = system: OVCAR-4
OVCAR-5 = system: OVCAR-5
OVCAR-8 = system: OVCAR-8
PC-3 = system: PC-3
RPMI-8226 = system: RPMI-8226
RXF 393 = system: RXF 393
SF-268 = system: SF-268
SF-295 = system: SF-295
SK-MEL-28 = system: SK-MEL-28
SK-MEL-2 = system: SK-MEL-2
SK-MEL-5 = system: SK-MEL-5
SK-OV-3 = system: SK-OV-3
SN12C = system: SN12C
SNB-19 = system: SNB-19
SNB-75 = system: SNB-75
SR = system: SR
SW-620 = system: SW-620
T47D = system: T47D
TK-10 = system: TK-10
U-251 = system: U-251
UACC-257 = system: UACC-257
UACC-62 = system: UACC-62
UO-31 = system: UO-31
SF-539 = system: SF-539

C/C(Cl)=N/OC(=O)Nc1ccc(S(N)(=O)=O)c(C)c1
GI50 (786-0): 2.03 µM (inactive)
GI50 (A498): 18.2 µM (inactive)
GI50 (A549): 17.5 µM (inactive)
GI50 (ACHN): 2.15 µM (inactive)
GI50 (BT-549): 12.3 µM (inactive)
GI50 (CAKI-1): 1.83 µM (inactive)
GI50 (CCRF-CEM): 1.07 µM (active)
GI50 (COLO 205): 2.17 µM (inactive)
GI50 (DU-145): 16.6 µM (inactive)
GI50 (EKVX): 5.75 µM (inactive)
GI50 (HCC 2998): 18.4 µM (inactive)
GI50 (HCT-116): 12 µM (inactive)
GI50 (HCT-15): 2.02 µM
GI50 (HL-60): 1.42 µM (inactive)
GI50 (HOP-62): 19.9 µM (inactive)
GI50 (HOP-92): 2 µM (inactive)
GI50 (HT-29): 17.8 µM (inactive)
GI50 (Hs-578T): 43.4 µM (inactive)
GI50 (IGROV-1): 15.4 µM (inactive)
GI50 (K562): 1.34 µM (inactive)
GI50 (KM12): 18.6 µM (inactive)
GI50 (LOX IMVI): 2.27 µM (inactive)
GI50 (M14): 9.14 µM (inactive)
GI50 (MCF7): 5.38 µM (inactive)
GI50 (MDA-MB-231): 8.26 µM (inactive)
GI50 (MDA-MB-435): 15.1 µM (inactive)
GI50 (MDA-N): 11.7 µM (inactive)
GI50 (MOLT-4): 1.5 µM (inactive)
GI50 (Malme-3M): 2.08 µM (inactive)
GI50 (NCI-H226): 23.6 µM (inactive)
GI50 (NCI-H23): 18.1 µM (inactive)
GI50 (NCI-H460): 39.9 µM (inactive)
GI50 (NCI-H522): 1.45 µM (inactive)
GI50 (NCI/ADR-RES): 14.1 µM (inactive)
GI50 (OVCAR-3): 4.46 µM (inactive)
GI50 (OVCAR-4): 15.5 µM (inactive)
GI50 (OVCAR-5): 18.3 µM (inactive)
GI50 (OVCAR-8): 24.7 µM (inactive)
GI50 (PC-3): 18.3 µM (inactive)
GI50 (RPMI-8226): 1.95 µM (inactive)
GI50 (RXF 393): 16.9 µM (inactive)
GI50 (SF-268): 26.1 µM (inactive)
GI50 (SF-295): 21 µM (inactive)
GI50 (SK-MEL-28): 13.6 µM (inactive)
GI50 (SK-MEL-2): 18.6 µM (inactive)
GI50 (SK-MEL-5): 12.9 µM (inactive)
GI50 (SK-OV-3): > 43.5 µM (inactive)
GI50 (SN12C): 13.4 µM (inactive)
GI50 (SNB-19): 18.1 µM (inactive)
GI50 (SNB-75): 19 µM (inactive)
GI50 (SR): 1.86 µM (inactive)
GI50 (SW-620): 2.38 µM (inactive)
GI50 (T47D): 2.92 µM (inactive)
GI50 (TK-10): 5.58 µM (inactive)
GI50 (U-251): 18.5 µM (inactive)
GI50 (UACC-257): 14.7 µM (inactive)
GI50 (UACC-62): 15.7 µM (inactive)
GI50 (UO-31): 14.9 µM (inactive)

C[C@H](CCC(=O)NCCS(=O)(=O)O)[C@H]1CC[C@H]2[C@@H]3[C@H](O)C[C@@H]4C[C@H](O)CC[C@]4(C)[C@H]3CC[C@]12C
GI50 (786-0): > 100 µM (inactive)
GI50 (A498): > 100 µM (inactive)
GI50 (A549): > 100 µM (inactive)
GI50 (ACHN): > 100 µM (inactive)
GI50 (BT-549): > 100 µM (inactive)
GI50 (CAKI-1): > 100 µM (inactive)
GI50 (CCRF-CEM): > 100 µM (inactive)
GI50 (COLO 205): > 100 µM (inactive)
GI50 (DU-145): > 100 µM (inactive)
GI50 (EKVX): > 100 µM (inactive)
GI50 (HCC 2998): > 100 µM (inactive)
GI50 (HCT-116): > 100 µM (inactive)
GI50 (HCT-15): > 100 µM
GI50 (HL-60): > 100 µM (inactive)
GI50 (HOP-62): > 100 µM (inactive)
GI50 (HOP-92): > 100 µM (inactive)
GI50 (HT-29): > 100 µM (inactive)
GI50 (Hs-578T): > 100 µM (inactive)
GI50 (IGROV-1): > 100 µM (inactive)
GI50 (K562): > 100 µM (inactive)
GI50 (KM12): > 100 µM (inactive)
GI50 (LOX IMVI): > 100 µM (inactive)
GI50 (M14): > 100 µM (inactive)
GI50 (MCF7): > 100 µM (inactive)
GI50 (MDA-MB-231): > 100 µM (inactive)
GI50 (MDA-MB-435): > 100 µM (inactive)
GI50 (MDA-N): > 100 µM (inactive)
GI50 (MOLT-4): > 100 µM (inactive)
GI50 (Malme-3M): > 100 µM (inactive)
GI50 (NCI-H226): > 100 µM (inactive)
GI50 (NCI-H23): > 100 µM (inactive)
GI50 (NCI-H460): > 100 µM (inactive)
GI50 (NCI-H522): > 100 µM (inactive)
GI50 (NCI/ADR-RES): 45.9 µM (inactive)
GI50 (OVCAR-3): > 100 µM (inactive)
GI50 (OVCAR-4): > 100 µM (inactive)
GI50 (OVCAR-5): > 100 µM (inactive)
GI50 (OVCAR-8): > 100 µM (inactive)
GI50 (PC-3): > 100 µM (inactive)
GI50 (RPMI-8226): > 100 µM (inactive)
GI50 (RXF 393): > 100 µM (inactive)
GI50 (SF-268): > 100 µM (inactive)
GI50 (SF-295): > 100 µM (inactive)
GI50 (SF-539): > 100 µM (inactive)
GI50 (SK-MEL-28): > 100 µM (inactive)
GI50 (SK-MEL-2): > 100 µM (inactive)
GI50 (SK-MEL-5): > 100 µM (inactive)
GI50 (SK-OV-3): > 100 µM (inactive)
GI50 (SN12C): > 100 µM (inactive)
GI50 (SNB-19): > 100 µM (inactive)
GI50 (SR): > 100 µM (inactive)
GI50 (SW-620): > 100 µM (inactive)
GI50 (T47D): > 100 µM (inactive)
GI50 (TK-10): > 100 µM (inactive)
GI50 (U-251): > 100 µM (inactive)
GI50 (UACC-257): > 100 µM (inactive)
GI50 (UACC-62): > 100 µM (inactive)
GI50 (UO-31): > 100 µM (inactive)
